Molecules are shown by their SMILES. A value given as a limit tells only on which side of the number the result lay.

A word on the AC50: it is the concentration at which the activity in the assay is half-maximal.

Holding throughout (format): biochemical
The target of one experiment is PKR-R510Q (Homo sapiens, UniProt P30613, R510Q). In words: Luminescence Assay (Kinase Glo Plus), PKR R510Q. As to conditions: read-out: AC50 (PKRR510Q). The procedure:
(§1) For each tested compound, the ability to activate PKR was determined using the following Luminescence Assay. The effect of phosphorylation of adenosine-5′-diphosphate (ADP) by PKR is determined by the Kinase Glo Plus Assay (Promega) in the presence or absence of FBP (D-fructose-1,6-diphosphate; BOC Sciences, CAS: 81028-91-3) as follows. Unless otherwise indicated, all reagents are purchased from Sigma-Aldrich. All reagents are prepared in buffer containing 50 mM Tris-HCl, 100 mM KCl, 5 mM MgCl2, and 0.01% Triton X100, 0.03% BSA, and 1 mM DTT. Enzyme and PEP (phosphoenolpyruvate) are added at 2× to all wells of an assay-ready plate containing serial dilutions of test compounds or DMSO vehicle. Final enzyme concentrations for PKR(wt), PKR(R510Q), and PKR(G332S) are 0.8 nM, 0.8 nM, and 10 nM respectively. Final PEP concentration is 100 μM. The Enzyme/PEP mixture is incubated with compounds for 30 minutes at RT before the assay is initiated with the addition of 2×ADP and KinaseGloPlus. Final concentration of ADP is 100 μM. […] For assays containing FBP, that reagent is added at 30 μM upon reaction initiation. Reactions are allowed to progress for 45 minutes at RT until luminescence is recorded by the BMG PHERAstar FS Multilabel Reader. The compound is tested in triplicate at concentrations ranging from 42.5 μM to 2.2 nM in 0.83% DMSO. AC50 measurements were obtained by the standard four parameter fit algorithm of ActivityBase XE Runner (max, min, slope and AC50). The AC50 value for a compound is the concentration (μM) at which the activity along the four parameter logistic curve fit is halfway between minimum and maximum activity.
(§2) As set forth in Tables 2 and 3 below and in FIG. 1, AC50 values are defined as follows: ≤0.1 μM (+++); >0.1 μM and ≤1.0 μM (++); >1.0 μM and ≤40 μM (+); >40 μM (0).

Another experiment has as its target PKR(G332S) (Homo sapiens, UniProt P30613, G332S). In words: Luminescence Assay (Kinase Glo Plus), PKR G332S. As to conditions: read-out: AC50 (PKRG332S). The procedure: as §1, §2
Background: In Kinase-Glo more light means more ATP remaining.

In a further experiment the target is PKR(wt) (Homo sapiens, UniProt P30613). In words: Luminescence Assay (Kinase Glo Plus), PKR wild type. The procedure: as §1, with “AC50 measurements were obtained by the standard four parameter fit algorithm of ActivityBase XE Runner (max, min, slope and AC50). The AC50 value for a compound is the concentration (μM) at which the activity along the four parameter logistic curve fit is halfway between minimum and maximum activity.” left out
PKR(wt), sequence (P30613 whole entry): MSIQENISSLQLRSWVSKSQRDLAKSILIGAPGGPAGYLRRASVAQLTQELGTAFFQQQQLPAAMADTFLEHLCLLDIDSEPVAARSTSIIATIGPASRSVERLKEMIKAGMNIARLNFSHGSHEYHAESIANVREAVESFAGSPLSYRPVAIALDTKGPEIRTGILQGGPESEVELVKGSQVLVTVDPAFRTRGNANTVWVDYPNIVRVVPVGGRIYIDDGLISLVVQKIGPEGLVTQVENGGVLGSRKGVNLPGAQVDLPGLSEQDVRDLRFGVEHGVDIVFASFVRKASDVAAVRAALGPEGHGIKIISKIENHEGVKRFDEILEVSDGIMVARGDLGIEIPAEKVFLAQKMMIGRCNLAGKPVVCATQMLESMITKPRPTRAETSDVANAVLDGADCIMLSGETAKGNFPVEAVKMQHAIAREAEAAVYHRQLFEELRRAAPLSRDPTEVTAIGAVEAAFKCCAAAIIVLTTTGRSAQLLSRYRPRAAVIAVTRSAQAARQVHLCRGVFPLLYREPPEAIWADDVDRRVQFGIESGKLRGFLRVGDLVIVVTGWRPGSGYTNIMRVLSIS

PKR-R510Q, sequence (P30613 whole entry R510Q): as the sequence (P30613 whole entry) above, with R510Q counted along it
PKR(G332S), sequence (P30613 whole entry G332S): as the sequence (P30613 whole entry) above, with G332S counted along it

Turning to `O=C([C@@H](CO)c1ccccc1)N1CC2=C(C1)CN(S(=O)(=O)c1cnc3c(c1)OCCO3)C2` (single isomer, unassigned) [Compound 2], the AC50 at PKR-R510Q, on PKR(G332S) and at PKR(wt) was 1 to 40 µM throughout.
As to `O=C([C@H](O)c1cccnc1)N1CC2=C(C1)CN(S(=O)(=O)c1cnc3c(c1)OCCO3)C2` [Compound 6], the concentration at half-maximal activity (AC50) was in the range of 1 to 40 µM at PKR-R510Q and 0.1 to 1 µM on PKR(G332S).
As for `O=C(c1cn[nH]c1-c1ccccc1)N1CC2=C(C1)CN(S(=O)(=O)c1ccc3c(c1)OCCO3)C2` [Compound 8], the AC50 at PKR-R510Q and on PKR(G332S) was more than 40 µM in each case.
With `O=C([C@H](CO)c1ccccc1)N1CC2=C(C1)CN(C(=O)[C@H](CO)c1ccccc1)C2` [Compound 7], the AC50 on PKR-R510Q and at PKR(G332S) was more than 40 µM in each case.

The record behind these values is US20200405699A1, “TREATING SICKLE CELL DISEASE WITH A PYRUVATE KINASE R ACTIVATING COMPOUND” (FORMA Therapeutics, Inc., priority 2018, published 2020).
